According to patent EP0046712A1, “Fluorinated diaminobutane derivatives” (MERRELL TORAUDE ET COMPAGNIE, priority 1980, dated 1982):
Where two headings read alike, the source gives them in different places.

Tests used:
Format in all cases: in vivo
[1] = Toxicity (weight loss and deaths) in mice after daily i.p. dosing for four days; conditions: four consecutive days, observed for up to 12 days; for Morality (After treatment) / mortality at 288 h: deaths per 5 mice; for mortality at 288 h: mouse, in vivo, ip, read-out: Morality (After treatment) (converted)
Experimental: (§1) A group of 10 male albino CDI mice from Charles Riner, France, is given an i.p. injection of the test compound in aqueous solution daily for four consecutive days. Half of the animals are killed by decapitation 24 hours after the last dose of the test compound. The other half of the animals are observed for up to 12 days for toxicity (as indicated by weight loss and deaths). Control animals receive an injection of the vehicle only.

[2] = system: GABA concentration in the brain; test: GABA content in brain of mice after daily i.p. dosing for four days; conditions: four consecutive days, 24 hours after the last dose
Experimental: as §1
(§2) The brains are removed from the dead mice and are divided into two portions by sagittal section. One half is used for the measurement of GABA-T activity while the other half is used for measuring GABA content. The GABA-T activity is measured using known methods as dessribed by M.Jung et al., J. Neurochem., 28, 717 (1977) and 29, 797 (1977). GABA content is measured by perchloric acid or trichloroacetic acid extracts using an amino acid analyzer equiped with a fluorescene detector.

[3] = biological target: T1, GABA-T (Mus musculus, UniProt P61922); test: GABA-T activity in brain of mice after daily i.p. dosing for four days; conditions: ip, four consecutive days, 24 hours after the last dose; for inhibition at 5 mg/kg: daily dose 5 mg/kg i.p.; for inhibition at 10 mg/kg: daily dose 10 mg/kg i.p.
T1 construct: The brains are removed from the dead mice and are divided into two portions by sagittal section; from tissue; host or cells: brain of male albino CD1 mice dosed i.p. for four days
T1 sequence (P61922 29-500): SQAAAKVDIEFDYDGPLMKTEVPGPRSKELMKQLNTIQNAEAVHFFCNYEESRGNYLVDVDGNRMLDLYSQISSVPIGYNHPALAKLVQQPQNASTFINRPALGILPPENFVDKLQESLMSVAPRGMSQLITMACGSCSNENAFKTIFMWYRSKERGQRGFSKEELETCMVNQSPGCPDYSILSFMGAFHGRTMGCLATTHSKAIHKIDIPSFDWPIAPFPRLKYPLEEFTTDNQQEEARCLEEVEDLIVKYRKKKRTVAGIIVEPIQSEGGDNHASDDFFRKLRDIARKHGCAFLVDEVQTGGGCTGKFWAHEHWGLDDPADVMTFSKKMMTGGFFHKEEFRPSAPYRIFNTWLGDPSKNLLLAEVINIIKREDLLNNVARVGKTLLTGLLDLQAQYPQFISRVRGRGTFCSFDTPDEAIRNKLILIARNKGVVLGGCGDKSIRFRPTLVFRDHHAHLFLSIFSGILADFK
Experimental: as §1, §2

[4] = system: clonic seizures induced by an i.v. challenge of (+)-bicuculline; test: Protection of mice against clonic seizures induced by i.v. (+)-bicuculline; conditions: for ED50: Mus musculus, ip, single dose, protection against bicuculline-induced clonic seizures

With `NCCC(N)C(F)F` (stereo not drawn) [DFDB, 1,1-difluoro-2,4-diaminobutane] the “Morality (After treatment)” value ([1]; daily dose 2 mg/kg i.p.) was 0/5, the “Weight Loss” value ([1]; daily dose 2 mg/kg i.p.) was 0% and the “Morality (After treatment)” value ([1]; daily dose 5 mg/kg i.p.) was 0/5. The “Weight Loss” value ([1]; daily dose 5 mg/kg i.p.) was 0%, the mortality at 288 h ([1]; daily dose 10 mg/kg i.p.) was 60% and the mortality at 288 h ([1]; daily dose 20 mg/kg i.p.) was 100%. It also gave a GABA content elevation ([2]; daily dose 5 mg/kg i.p.) of 200%, a GABA content elevation ([2]; daily dose 10 mg/kg i.p.) of 275% and a GABA content elevation ([2]; daily dose 20 mg/kg i.p.) of 465%. The inhibition at 2 mg/kg ([3]; daily dose 2 mg/kg i.p.) was 69.5%, the inhibition at 5 mg/kg [3] was 71.4% and the inhibition at 10 mg/kg [3] was 81%. The inhibition at 20 mg/kg ([3]; daily dose 20 mg/kg i.p.) was 96.7%, the ED50 [4] was 4.2 mg/kg and the “% of Animals Blocked” value ([4]; single dose 3 mg/kg i.p.) was 20%. The “% of Animals Blocked” value ([4]; single dose 4 mg/kg i.p.) was 45%, the “% of Animals Blocked” value ([4]; single dose 6 mg/kg i.p.) was 90% and the “% of Animals Blocked” value ([4]; single dose 8 mg/kg i.p.) was 95%.

With `NCCC(N)CF` (stereo not drawn) [MFDB, 1-fluoro-2,4-diaminobutane] the “Morality (After treatment)” value ([1]; daily dose 5 mg/kg i.p.) was 0/5, the “Weight Loss” value ([1]; daily dose 5 mg/kg i.p.) was 0% and the “Morality (After treatment)” value ([1]; daily dose 10 mg/kg i.p.) was 0/5. The “Weight Loss” value ([1]; daily dose 10 mg/kg i.p.) was 0%, the mortality at 288 h ([1]; daily dose 25 mg/kg i.p.) was 40% and the mortality at 288 h ([1]; daily dose 50 mg/kg i.p.) was 60%. It also gave a GABA content elevation ([2]; daily dose 5 mg/kg i.p.) of 190%, a GABA content elevation ([2]; daily dose 10 mg/kg i.p.) of 200% and a GABA content elevation ([2]; daily dose 25 mg/kg i.p.) of 470%. The GABA content elevation ([2]; daily dose 50 mg/kg i.p.) was 465%, the inhibition at 5 mg/kg [3] was 39.7% and the inhibition at 10 mg/kg [3] was 49.8%. It also gave an inhibition at 25 mg/kg ([3]; daily dose 25 mg/kg i.p.) of 74%, an inhibition at 50 mg/kg ([3]; daily dose 50 mg/kg i.p.) of 79% and an ED50 [4] of 65 mg/kg. The “% of Animals Blocked” value ([4]; single dose 42 mg/kg i.p.) was 20%, the “% of Animals Blocked” value ([4]; single dose 51 mg/kg i.p.) was 40% and the “% of Animals Blocked” value ([4]; single dose 59 mg/kg i.p.) was 50%. For the same compound, the “% of Animals Blocked” value ([4]; single dose 68 mg/kg i.p.) was 55%, the “% of Animals Blocked” value ([4]; single dose 84 mg/kg i.p.) was 60% and the “% of Animals Blocked” value ([4]; single dose 100 mg/kg i.p.) was 60%.
